Measurements from patent US7892350B2, “Sacrificial agents for fly ash concrete” (Boral Material Technologies Inc., priority 2003, dated 2011).
Read-outs that look alike come from different tables or passages of the source.

Experiment: Second sacrificial agent testing protocol: paste air measurements with DDBS (0.0125 wt %) and rating; as to Overall performance rating (second protocol rating): key: 0: Fail; 1: Poor; 2: Good; 3: Preferred; 4: Most preferred; as to SA Rating (0-4): key: 0: Fail; 1: Poor; 2: Good; 3: Preferred; 4: Most preferred
Procedure: The second sacrificial agents evaluation protocol has been designed to assess the relative potential value of candidate sacrificial agents with a maximum of five paste air measurements.
The first two measurements (of entrained air) are carried out with a standard AEA in a portland cement paste and in a FA:cement paste; these two tests provide reference values which can be used for the relative assessment of a series of sacrificial agents. The other three paste air measurements pertain to the properties and effectiveness of the sacrificial agents.
1. Measurement of the air entrained by a standard air-entraining admixture in a cement paste of fixed composition and fluidity; the latter is a reference system which provides ‘reference’ air entrainment values (‘A’ in FIG. 8).
2. […] The difference between ‘B’ and ‘A’ in FIG. 8 is the reduction in air entrainment due to the presence of the fly ash; this is illustrated as ‘C’ in FIG. 8.
In the present SA testing and evaluation protocol, the fly ash selected should remain the same for the entire set of additives tested, in order to provide reliable relative performance ranking. For the present series of test, the Fly Ash selected was the one identified as B1 in Table 1 below; the physico-chemical properties of this fly ash are reported in Table 1.
In testing for the relative performance of the sacrificial agent, the sacrificial agent dosage was chosen in the range 0-0.1 wt %, which corresponds to typical dosage values observed in paste, mortar and concrete tests reported in Tables 2, 3 and 4 and Tables 7 to 34.
3. Measurement of the air entrainment of the SA, by itself, in a cement-only paste at a dosage of 0.1 wt %; this is illustrated as ‘D’ in FIG. 8.
4. Measurement of the air entrained by DDBS in the FA-cement paste comprising 0.05% wt SA, under the same conditions as described in 2 above. The air entrainment value observed in this system, compared to that observed in the absence of the SA, yields the air recovery due to the SA, and is illustrated schematically as ‘E’ in FIG. 8.
5. Same as in 4 above, but with a higher SA concentration at 0.1 wt %; the air entrainment observed, again compared to the value observed in the absence of the SA, yields a second value of air recovery by the SA and is illustrated as ‘F’ in FIG. 8.
For the relative performance rating of the group of products chosen as potential SA and listed in Table 36, the following rating scheme (Tables A and B) was adopted (referring to FIG. 8 and quantities defined therein):
1: Chemical name of compound tested as potential sacrificial agent • Col. 2: Level of air entrainment by the candidate sacrificial agent, at a concentration of 0.1 wt %, in a Portland cement paste ([…]) • Col. […] 5: Sacrificial agent overall rating index (described below) • Col. 6: Hydrophilic-Lipophilic Balance (HLB) values of candidate sacrificial agent (source and significance of HLB data given below) • Col. 7: Logarithm of the Oil(octanol)/water partition coefficient (Kow) of the candidate sacrificial agents (source and significance of data given below).

[1] = Portland cement paste (PCA), […]
[2] = sacrificial agent overall rating index
[3] = B1 FA/cement paste, 0.0125 wt % DDBS, 0.05 wt % SA
[4] = B1 FA/cement paste, 0.0125 wt % DDBS, 0.10 wt % SA
[5] = sum of ratings of air entrainment recovery by 0.05% and 0.1% SA, DDBS 0.0125 wt %, 50:50 B1 fly ash:cement paste

Molecule | B1 + 0.0125% DDBS + 0.05% SA (air entrainment) (B1 FA/cement paste, […]) | B1 + 0.0125% DDBS + 0.1% SA (air entrainment) (B1 FA/cement paste, […]) | PCA + 0.1% SA (level of air entrainment by the candidate sacrificial agent) [1] | SA Rating (0-4) [2] | Overall performance rating (second protocol rating) | further results
CC(O)CO (centres unmarked) [Propylene Glycol] | 3.0 | 3.6 | 0.5 | 0 | – | –
CC1COC(=O)O1 (centres unmarked) [Propylene carbonate] | – | – | 0.4 | 0 | – | B1 + 0.0125% DDBS + 0.05% SA (air entrainment) [3]: 2.5; B1 + 0.0125% DDBS + 0.1% SA (air entrainment) [4]: 2.9
O=C([O-])c1ccccc1O.[Na+] [Sodium Salicylate] | – | – | – | – | – | B1 + 0.0125% DDBS + 0.05% SA (air entrainment): 2.9; B1 + 0.0125% DDBS + 0.1% SA (air entrainment): 3.0; PCA + 0.1% SA (level of air entrainment by the candidate sacrificial agent): 0.4; SA Rating (0-4): 0
O=P([O-])([O-])O.[Na+].[Na+] [Sodium phosphate dibasic] | – | – | 0.0 | 0 | – | B1 + 0.0125% DDBS + 0.05% SA (air entrainment) [3]: 2.1; B1 + 0.0125% DDBS + 0.1% SA (air entrainment) [4]: 2.3
O=P(O)(O)OP(=O)(O)OP(=O)(O)O [Sodium tripolyphosphate] | – | – | 0.2 | 0 | – | B1 + 0.0125% DDBS + 0.05% SA (air entrainment) [3]: 2.2; B1 + 0.0125% DDBS + 0.1% SA (air entrainment) [4]: 1.9
OC[C@@H](O)[C@@H](O)[C@H](O)[C@@H](O)CO [Sorbitol] | 2.2 | 4.2 | 0.5 | 1 | 1 | –
CCCC[N+](CCCC)(CCCC)CCCC.[Cl-] [Tetrabutyl ammonium chloride] | – | – | – | – | 3 | B1 + 0.0125% DDBS + 0.05% SA (air entrainment): 4.9; B1 + 0.0125% DDBS + 0.1% SA (air entrainment): 4.1; PCA + 0.1% SA (level of air entrainment by the candidate sacrificial agent): 0.6; SA Rating (0-4): 3
CC[N+](CC)(CC)CC.[OH-] [Tetraethyl ammonium hydroxide] | – | – | – | – | – | B1 + 0.0125% DDBS + 0.05% SA (air entrainment): 2.3; B1 + 0.0125% DDBS + 0.1% SA (air entrainment): 3.0; PCA + 0.1% SA (level of air entrainment by the candidate sacrificial agent): 0.1; SA Rating (0-4): 0
CC(O)CN(CC(C)O)CC(C)O (centres unmarked) [Tri-iso-propanolamine] | – | – | – | – | 4 | –
CC(O)CN(CC(C)O)CC(C)O (centres unmarked) [Tri-isopropanolamine] | 5.6 | 7.6 | 1.3 | 4 | – | –
CCN(CC)CC [Triethylamine] | – | – | – | – | 4 | B1 + 0.0125% DDBS + 0.05% SA (air entrainment): 5.2; B1 + 0.0125% DDBS + 0.1% SA (air entrainment): 5.1; PCA + 0.1% SA (level of air entrainment by the candidate sacrificial agent): 0.5; SA Rating (0-4): 4
CCCN(CCC)CCC [Tripropylamine] | 2.6 | 2.4 | 0.3 | 0 | – | –
NC(N)=O [Urea] | – | 2.0 | 0.1 | 2 | 2 | –
CC(C)O [i-Propanol] | 3.7 | 4.1 | 2.4 | 1 | 1 | –
CCCO [n-Propanol] | – | – | – | – | 1 | B1 + 0.0125% DDBS + 0.05% SA (air entrainment): 3.5; B1 + 0.0125% DDBS + 0.1% SA (air entrainment): 4.4; PCA + 0.1% SA (level of air entrainment by the candidate sacrificial agent): 2.0; SA Rating (0-4): 1
C=CN1CCCC1=O [n-Vinyl-2-pyrrolidinone] | 3.7 | 4.3 | 2.8 | 1 | 1 | –

Molecule | B1 + 0.0125% DDBS + 0.05% SA (air entrainment) (B1 FA/cement paste, […]) | B1 + 0.0125% DDBS + 0.1% SA (air entrainment) (B1 FA/cement paste, […]) | PCA + 0.1% SA (level of air entrainment by the candidate sacrificial agent) [1] | SA Rating (0-4) [2] | Overall performance rating (second protocol rating) | further results
CCCCN [n-butyl amine] | 5.7 | 8.1 | 1.2 | 4 | 4 | –
CCCCNC(N)=O [n-butyl urea] | – | – | 2.1 | 4 | – | B1 + 0.0125% DDBS + 0.05% SA (air entrainment) [3]: 5.3; B1 + 0.0125% DDBS + 0.1% SA (air entrainment) [4]: 7.5; Overall performance rating (second protocol rating) [5]: 4
COc1ccc(OC)cc1 [p-Dimethoxybenzene] | 4.7 | 4.0 | 0.7 | 2 | 2 | –
Cc1ccc(S(=O)(=O)O)cc1 [p-Toluene Sulfonic acid] | 3.9 | 5.1 | 0.7 | 3 | 3 | –
CC(C)(C)O [t-Butanol] | – | – | – | – | 4 | –
CC(C)(C)O [tert-Butanol] | 6.3 | 7.0 | 0.8 | 4 | – | –
OCCOCCOCCO [tri-Ethylene Glycol] | 3.1 | 4.1 | 0.9 | 1 | 1 | –
CC(O)COC(C)COC(C)CO (centres unmarked) [tri-Propylene glycol] | 7.8 | 9.2 | 1.6 | 4 | 4 | –
Aniline (Phenylamine) | 3.7 | 5.6 | 1.7 | 2 | – | –
Methylnaphthalene sulfonate Na | – | – | – | – | – | Overall performance rating (second protocol rating) [5]: 4
P(EG-ran-propylene-glycol) 2500 | – | – | – | – | 4 | –
POE (20) Sorbitan monolaurate [Tween®] | – | – | – | – | – | Overall performance rating (second protocol rating) [5]: 4
Polyethylene glycol 400 | – | – | – | – | – | Overall performance rating (second protocol rating) [5]: 4
Polyethylene glycol 2000 | – | – | – | – | – | Overall performance rating (second protocol rating) [5]: 4
Polypropylene glycol 425 | – | – | – | – | – | Overall performance rating (second protocol rating) [5]: 4
Tetramethyl ammonium hydroxide | – | – | – | – | – | B1 + 0.0125% DDBS + 0.05% SA (air entrainment): 2.5; B1 + 0.0125% DDBS + 0.1% SA (air entrainment): 2.9; PCA + 0.1% SA (level of air entrainment by the candidate sacrificial agent): 0.1; SA Rating (0-4): 0
